# Test results from patent US11046709B2, “Fused 1,4-diazepines as BET bromodomain inhibitors” (THE REGENTS OF THE UNIVERSITY OF MICHIGAN, priority 2017, dated 2021).
# Like-named read-outs stand apart in the source and are kept apart here.
# Columns and labels:
# [1] = test system: MDA-MB-231; assay: Cell growth inhibition, 4-day proliferation assay, MDA-MB-231; assay type: cell-based; settings: Homo sapiens
# Procedure: (§1) The effect of representative Compounds of the Disclosure on cell viability was determined in a 4-day proliferation assay. Cells were maintained in the appropriate culture medium with 100/0 FBS at 37° C. and an atmosphere of 5% CO2. All the cell lines were used within three months of thawing fresh vials.
# (§2) In general, cells were seeded in 96-well flat bottom (Corning COSTAR, Corning, N.Y., cat #3595) or white opaque cell culture plates (BD Falcon, cat #353296) at a density of 3,000-10,000 cells/well in 75 μl of culture medium. Compounds were serially diluted in the appropriate medium, and 75 μl of the diluted compounds were added to the appropriate wells of the cell plate. After the addition of compounds, the cells were incubated at 37° C. in an atmosphere of 5% CO2 for 4 days. Cell viability was determined using the CellTiter-Glo® Luminescent Cell Viability Assay Kit (Promega, Madison, Wis.) for leukemia cells and WST (2-(2-methoxy-4-nitrophenyl)-3-(4-nitrophenyl)-5-(2,4-disulfophenyl)-2H-tetrazolium, monosodium salt) Cell Counting-8 Kit (Dojindo Molecular Technologies, Inc., Rockville, Md.) for adherent cells according to the manufacturers' instructions.
# (§3) For WST assay (adherent cells), WST-8 reagent was added to each well at a final concentration of 10% (v/v), and then the plates were incubated at 37° C. for 1-2 hours for color development. The absorbance was measured at 450 nm using a SPECTRAmax PLUS plate reader (Molecular Devices, Sunnyvale, Calif.). The readings were normalized to the DMSO-treated cells and the half maximal inhibitory concentration (IC50) was calculated by nonlinear regression (four parameters sigmoid fitted with variable slope, least squares fit, and no constraint) analysis using the GraphPad Prism 5 software (GraphPad Software, La Jolla, Calif.).
# (§4) For CellTiter-Glo assay (suspension cells), 100 μl of CellTiter-Glo® Reagent was added to each well, and then the plates were incubated at room temperature for 10-20 minutes. The luminescent signal was measured using a Tecan Infinite M1000 multimode microplate reader (Tecan, Morrisville, N.C.). The readings were normalized to the DMSO-treated cells and the IC50 was calculated by nonlinear regression (four parameters sigmoid fitted with variable slope, least squares fit, and no constraint) analysis using the GraphPad Prism 5 software. See US 2014/0256706.
# (§5) For a number of representative compounds in Table 5, their IC50 values in cell growth inhibition activity in the RS4;11 and MOLM-13 human leukemia cell lines and the MDA-MB-231 breast cancer cell line were evaluated using the WST-8 assay described in EXAMPLE 7, with the data shown in Table 7.
# [2] = test system: MOLM-13; assay: Cell growth inhibition, 4-day proliferation assay, MOLM-13; assay type: cell-based; settings: Homo sapiens
# Procedure: as §1, §2, §3, §4, §5
# [3] = biological target: T1, recombinant BRD4 BD2 (Homo sapiens, UniProt O60885); assay: Competitive fluorescence-polarization (FP) binding assay, BRD4 BD2
# T1 construct: for recombinant BRD4 BD1 and BRD4 BD2 proteins
# Procedure: Fluorescence Polarization (FP) competitive binding studies were carried out using a FAM labeled fluorescent probe, see, e.g., Cpd. No. 350 of US 2014/0256706, to determine binding affinities of representative Compounds of the Disclosure for recombinant BRD4 BD1 and BRD4 BD2 proteins. Equilibrium dissociation constants (Kd) values of the fluorescent probe to BRD4 BD1 and BD2 proteins were determined from protein saturation experiments by monitoring the total fluorescence polarization of mixtures composed with the fluorescent probe at a fixed concentration and proteins with increasing concentrations up to full saturation. Serial dilutions of testing proteins were mixed with the fluorescent probe to a final volume of 200 μl in the assay buffer (100 mM phosphate buffer, pH=6.5, 0.01% Triton X-100 (Sigma, 282103) being added right before assays). Final fluorescent probe concentration was 1.5 nM for both proteins. Plates were incubated at room temperature for 30 minutes with gentle shaking to assure equilibrium. FP values in millipolarization units (mP) were measured using the Infinite M-1000 plate reader (Tecan U.S., Research Triangle Park, N.C.) in Microfluor 1 96-well, black, round-bottom plates (Thermo Scientific, Waltham, Mass.) at an excitation wavelength of 485 nm and an emission wavelength of 530 nm. Kd values of the fluorescent probe, which were calculated by fitting the sigmoidal dose-dependent FP increases as a function of protein concentrations using Graphpad Prism 6.0 software (Graphpad Software, San Diego, Calif.), are 5.5 and 3.0 nM to BDR4 BD1 and 2, respectively.
# The IC50 and Ki values of compounds were determined in a competitive binding experiment. See US 2014/0256706. Mixtures of 10 μl of the tested compounds in assay buffer with 40% Ethylene Glycol and 190 μl of preincubated protein/probe complex solution in the assay buffer (100 mM potassium phosphate, pH 6.5, 0.01% Triton X-100) were added into assay plates which were incubated at room temperature for 30 minutes with gentle shaking. Final concentrations of proteins were 10 and 6 nM in assays for BRD4 BD1 and BD2, respectively. Final probe concentration is 1.5 nM in both assays. Negative controls containing protein/probe complex only (equivalent to 0% inhibition), and positive controls containing only free probes (equivalent to 100% inhibition), were included in each assay plate. FP values were measured as described above. IC50 values were determined by nonlinear regression fitting of the competition curves. Instead of being calculated from IC50 values as described before. Ki values of competitive inhibitors were obtained directly by nonlinear regression fitting as well, based upon the Kd values of the probe to different proteins, and concentrations of the proteins and probes in the competitive assays (US 2014/0256706; Wang, FEBS Lett. 360:111 (1995); Zhang et al., Analytical Biochemistry, 331:138 (2004)).
# Representative compounds in Table 5 were evaluated for their binding affinities to BRD4 BD1 and BD2 proteins using the Competitive Fluorescence-Polarization (FP) Assays described in Example 6, with the data included in Table 6.
# [4] = MDA-MB-231, WST-8 assay, Table 7, read-out: Cell growth inhibition (IC50 (nM)) MDA-MB-231
# [5] = MOLM-13, WST-8 assay, Table 7, read-out: Cell growth inhibition (IC50 (nM)) MOLM-13
# [6] = MDA-MB-231, 96 h, read-out: Cell IC50 (nM) MDA-MB-231
# [7] = MOLM-13, 96 h, read-out: Cell IC50 (nM) MOLM13
smiles,measurement,setting,value
"Cc1c(C#Cc2cnn(C)c2)sc2c1C(c1ccc(Cl)cc1)=N[C@@H](CC(=O)N1CCN(C(=O)OC(C)(C)C)CC1)c1nnc(C)n1-2 [Compound 160, tert-butyl (S)-4-(2-(4-(4-chlorophenyl)-3,9-dimethyl-2-((1-methyl-1H-pyrazol-4-yl)ethynyl)-6H-thieno[3,2-f][1,2,4]triazolo[4,3-a][1,4]diazepin-6-yl)acetyl)piperazine-1-carboxylate]",IC50,[1]; [4],108 nM
same,IC50,[2]; [5],8.5 nM
"Cc1c(C#Cc2cnn(C)c2)sc2c1C(c1ccc(Cl)cc1)=N[C@@H](CC(=O)N1CCNCC1)c1nnc(C)n1-2 [Compound 161, (S)-2-(4-(4-chlorophenyl)-3,9-dimethyl-2-((1-methyl-1H-pyrazol-4-yl)ethynyl)-6H-thieno[3,2-f][1,2,4]triazolo[4,3-a][1,4]diazepin-6-yl)-1-(piperazin-1-yl)ethan-1-one]",IC50,[1]; [4],76.2 nM
same,IC50,[2]; [5],10.9 nM
"Cc1c(C#Cc2cnn(C)c2)sc2c1C(c1ccc(Cl)cc1)=N[C@@H](CC(=O)N1CCN(C)CC1)c1nnc(C)n1-2 [Compound 162, (S)-2-(4-(4-chlorophenyl)-3,9-dimethyl-2-((1-methyl-1H-pyrazol-4-yl)ethynyl)-6H-thieno[3,2-f][1,2,4]triazolo[4,3-a][1,4]diazepin-6-yl)-1-(4-methylpiperazin-1-yl)ethan-1-one]",IC50,[1]; [4],109 ± 38 nM
same,IC50,[2]; [5],19.2 nM
"Cc1c(C#Cc2cncn2C)sc2c1C(c1ccc(Cl)cc1)=N[C@@H](CC(=O)N1CCN(C(=O)OC(C)(C)C)CC1)c1nnc(C)n1-2 [Compound 163, tert-butyl (S)-4-(2-(4-(4-chlorophenyl)-3,9-dimethyl-2-((1-methyl-1H-imidazol-5-yl)ethynyl)-6H-thieno[3,2-f][1,2,4]triazolo[4,3-a][1,4]diazepin-6-yl)acetyl)piperazine-1-carboxylate]",IC50,[1]; [4],362 nM
same,IC50,[2]; [5],33.1 nM
Cc1c(C#Cc2cncn2C)sc2c1C(c1ccc(Cl)cc1)=N[C@@H](CC(=O)N1CCNCC1)c1nnc(C)n1-2 [Compound 164],IC50,[1]; [4],304 nM
same,IC50,[2]; [5],85.4 nM
"Cc1c(C#Cc2ccccn2)sc2c1C(c1ccc(Cl)cc1)=NCc1nnc(C)n1-2 [Cpd. No. 1, 4-(4-chlorophenyl)-3,9-dimethyl-2-(pyridin-2-ylethynyl)-6H-thieno[3,2-f][1,2,4]triazolo[4,3-a][1,4]diazepine]",IC50,[1]; [6],272 nM
same,IC50,[3],178 nM
same,IC50,[2]; [7],206 ± 21.9 nM
"Cc1c(C#Cc2cn[nH]c2)sc2c1C(c1ccc(Cl)cc1)=NCc1nnc(C)n1-2 [Cpd. No. 21, 2-((1H-pyrazol-4-yl)ethynyl)-4-(4-chlorophenyl)-3,9-dimethyl-6H-thieno[3,2-f][1,2,4]triazolo[4,3-a][1,4]diazepine]",IC50,[3],37.4 nM
"Cc1c(C#Cc2cn[nH]c2)sc2c1C(c1ccc(Cl)cc1)=N[C@@H](C)c1nnc(C)n1-2 [Cpd. No. 22, (S)-2-((1H-pyrazol-4-yl)ethynyl)-4-(4-chlorophenyl)-3,6,9-trimethyl-6H-thieno[3,2-f][1,2,4]triazolo[4,3-a][1,4]diazepine]",IC50,[3],7.68 nM
"Cc1c(C#CC2CCCC2)sc2c1C(c1ccc(Cl)cc1)=N[C@@H](C)c1nnc(C)n1-2 [Cpd. No. 29, (S)-4-(4-chlorophenyl)-2-(cyclopentylethynyl)-3,6,9-trimethyl-6H-thieno[3,2-f][1,2,4]triazolo[4,3-a][1,4]diazepine]",IC50,[3],10.3 nM
"Cc1c(C#Cc2cncn2C)sc2c1C(c1ccc(Cl)cc1)=N[C@@H](C)c1nnc(C)n1-2 [Cpd. No. 30, (S)-4-(4-chlorophenyl)-3,6,9-trimethyl-2-((1-methyl-1H-imidazol-5-yl)ethynyl)-6H-thieno[3,2-f][1,2,4]triazolo[4,3-a][1,4]diazepine]",IC50,[3],13.5 nM
"Cc1c(C#Cc2ccc(F)cn2)sc2c1C(c1ccc(Cl)cc1)=N[C@@H](C)c1nnc(C)n1-2 [Cpd. No. 31, (S)-4-(4-chlorophenyl)-2-((5-fluoropyridin-2-yl)ethynyl)-3,6,9-trimethyl-6H-thieno[3,2-f][1,2,4]triazolo[4,3-a][1,4]diazepine]",IC50,[3],19.5 nM
"Cc1c(C#Cc2ccc(N)cn2)sc2c1C(c1ccc(Cl)cc1)=N[C@@H](C)c1nnc(C)n1-2 [Cpd. No. 32, (S)-6-((4-(4-chlorophenyl)-3,6,9-trimethyl-6H-thieno[3,2-f][1,2,4]triazolo[4,3-a][1,4]diazepin-2-yl)ethynyl)pyridin-3-amine]",IC50,[3],9.87 nM
"Cc1c(C#CCN2CCN(C)CC2)sc2c1C(c1ccc(Cl)cc1)=N[C@@H](C)c1nnc(C)n1-2 [Cpd. No. 33, (S)-4-(4-chlorophenyl)-3,6,9-trimethyl-2-(3-(4-methylpiperazin-1-yl)prop-1-yn-1-yl)-6H-thieno[3,2-f][1,2,4]triazolo[4,3-a][1,4]diazepine]",IC50,[3],42.2 nM
"Cc1c(C#Cc2cncs2)sc2c1C(c1ccc(Cl)cc1)=N[C@@H](C)c1nnc(C)n1-2 [Cpd. No. 34, (S)-4-(4-chlorophenyl)-3,6,9-trimethyl-2-(thiazol-5-ylethynyl)-6H-thieno[3,2-f][1,2,4]triazolo[4,3-a][1,4]diazepine]",IC50,[3],21.8 nM
"Cc1c(C#Cc2nccs2)sc2c1C(c1ccc(Cl)cc1)=N[C@@H](C)c1nnc(C)n1-2 [Cpd. No. 35, (S)-4-(4-chlorophenyl)-3,6,9-trimethyl-2-(thiazol-2-ylethynyl)-6H-thieno[3,2-f][1,2,4]triazolo[4,3-a][1,4]diazepine]",IC50,[3],22 nM
"COc1ccc(C#Cc2sc3c(c2C)C(c2ccc(Cl)cc2)=N[C@@H](C)c2nnc(C)n2-3)nc1 [Cpd. No. 36, (S)-4-(4-chlorophenyl)-2-((5-methoxypyridin-2-yl)ethynyl)-3,6,9-trimethyl-6H-thieno[3,2-f][1,2,4]triazolo[4,3-a][1,4]diazepine]",IC50,[3],11.7 nM
Cc1c(C#Cc2ccc(O)cn2)sc2c1C(c1ccc(Cl)cc1)=N[C@@H](C)c1nnc(C)n1-2 [Cpd. No. 42],IC50,[1]; [6],7.9 nM
same,IC50,[2]; [7],10.6 nM
